According to patent US20220125765A1, “PHARMACEUTICAL COMBINATIONS COMPRISING MEBENDAZOLE AND A STRONG OR MODERATE CYP1A2 INHIBITOR” (ZEPHAPHARM LTD, priority 2019, published 2022):
Read-outs that look alike come from different tables or passages of the source.

Legend:
[1] = Stability in human cryopreserved hepatocytes without and with cimetidine or thiabendazole (Example 6); conditions: human, cryopreserved hepatocytes (suspension), substrate 1 μM, no inhibitor
Procedure: Mebendazole (1 μM) was incubated with cryopreserved human hepatocytes for 60 min in the absence and presence of cimetidine at 30, 100 and 300 μM) and thiabendazole at 10, 30 and 100 μM and samples taken at the required time points. The amount of test compound remaining at each time point was analysed by LC-MS/MS. Appropriate control compounds were also incubated along with ethoxycoumarin, which was incubated in the absence and presence of cimetidine and thiabendazole.
The final incubation volume was 500 μL. Two control compounds were included, alongside appropriate vehicle control. A positive control compound, ethoxycoumarin, for CYP1A2 was included. The positive control compound was incubated without inhibitor and in the presence of each inhibitor. The reactions were stopped by transferring 50 μL of incubate to 100 μL acetonitrile containing internal standard at the appropriate time points (0, 5, 10, 20, 40 and 60 min). The termination plates were centrifuged at 2500 rpm at 4° C. for 30 min to precipitate the protein.

[2] = Stability in human cryopreserved hepatocytes without and with cimetidine or furafylline (Example 5); format: in vitro ADME; conditions: human, cryopreserved hepatocytes (suspension), substrate 1 μM, no inhibitor; read-out: t1/2
Procedure: The final incubation volume was 500 μL. Two control compounds were included with each species, alongside appropriate vehicle control.
The samples were analysed for mebendazole or ethoxycoumarin using LC-MS/MS.
The final incubation volume was 500 μL.
A positive control compound, ethoxycoumarin, for CYP1A2 was included. […] The samples were analysed for mebendazole or ethoxycoumarin using LC-MS/MS.

CYP3A4 = CYP3A4 (Homo sapiens, UniProt P08684); experiment: Cytochrome P450 reaction phenotyping, recombinant CYP3A4 (Bactosomes); conditions: human, recombinant enzyme, pH 7.4
Chain of CYP3A4 (P08684 whole entry, canonical isoform): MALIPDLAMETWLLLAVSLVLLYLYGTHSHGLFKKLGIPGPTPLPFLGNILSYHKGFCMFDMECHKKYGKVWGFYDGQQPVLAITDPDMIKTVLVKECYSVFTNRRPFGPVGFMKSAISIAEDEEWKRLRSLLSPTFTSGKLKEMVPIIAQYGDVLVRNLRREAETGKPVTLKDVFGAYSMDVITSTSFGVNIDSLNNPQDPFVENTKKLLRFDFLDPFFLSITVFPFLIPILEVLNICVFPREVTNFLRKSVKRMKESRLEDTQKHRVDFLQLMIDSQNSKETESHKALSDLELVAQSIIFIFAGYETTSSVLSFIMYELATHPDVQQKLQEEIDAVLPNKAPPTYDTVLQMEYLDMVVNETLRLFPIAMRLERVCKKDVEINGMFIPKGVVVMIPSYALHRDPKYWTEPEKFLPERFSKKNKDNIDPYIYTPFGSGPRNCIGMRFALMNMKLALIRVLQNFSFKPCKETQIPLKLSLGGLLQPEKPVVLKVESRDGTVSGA
Procedure: (§1) Incubations were also performed using control Bactosomes™ (no P450 enzymes present) to reveal any non-enzymatic degradation. Control compounds known to be metabolised specifically by each P450 isoform were included. All incubations were performed singularly for each test compound.
(§2) Incubations were also performed using control Bactosomes™ (no P450 enzymes present) to reveal any non-enzymatic degradation. Control compounds known to be metabolised specifically by each P450 isoform were included. All incubations were performed singularly for each test compound. […] The reactions were stopped by transferring an aliquot of incubate to quench solvent at the appropriate time points, in a 1:3 ratio. The termination plates were centrifuged at 3,000 rpm for 20 min at 4° C. to precipitate the protein.

CYP2C9 = CYP2C9 (Homo sapiens, UniProt P11712); experiment: Cytochrome P450 reaction phenotyping, recombinant CYP2C9 (Bactosomes); conditions: human, recombinant enzyme, pH 7.4
Chain of CYP2C9 (P11712 whole entry): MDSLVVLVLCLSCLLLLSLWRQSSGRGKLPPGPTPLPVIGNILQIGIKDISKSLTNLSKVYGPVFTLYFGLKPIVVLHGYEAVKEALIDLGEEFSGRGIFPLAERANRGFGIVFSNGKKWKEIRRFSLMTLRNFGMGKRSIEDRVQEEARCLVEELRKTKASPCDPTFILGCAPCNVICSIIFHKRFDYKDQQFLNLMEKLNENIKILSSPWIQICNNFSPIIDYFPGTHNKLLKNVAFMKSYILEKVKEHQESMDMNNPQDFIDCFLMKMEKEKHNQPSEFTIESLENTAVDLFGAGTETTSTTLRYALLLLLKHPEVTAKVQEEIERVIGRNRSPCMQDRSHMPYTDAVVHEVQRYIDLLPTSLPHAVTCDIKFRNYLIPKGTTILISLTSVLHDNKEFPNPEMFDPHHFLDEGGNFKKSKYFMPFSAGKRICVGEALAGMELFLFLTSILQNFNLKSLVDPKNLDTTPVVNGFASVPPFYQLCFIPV
Procedure: as §1, §2

CYP2B6 = target: T1, CYP2B6 (Homo sapiens, UniProt P20813); experiment: Cytochrome P450 reaction phenotyping, recombinant CYP2B6 (Bactosomes); conditions: CYP2B6, substrate 1 μM
T1 sequence (P20813 1-491): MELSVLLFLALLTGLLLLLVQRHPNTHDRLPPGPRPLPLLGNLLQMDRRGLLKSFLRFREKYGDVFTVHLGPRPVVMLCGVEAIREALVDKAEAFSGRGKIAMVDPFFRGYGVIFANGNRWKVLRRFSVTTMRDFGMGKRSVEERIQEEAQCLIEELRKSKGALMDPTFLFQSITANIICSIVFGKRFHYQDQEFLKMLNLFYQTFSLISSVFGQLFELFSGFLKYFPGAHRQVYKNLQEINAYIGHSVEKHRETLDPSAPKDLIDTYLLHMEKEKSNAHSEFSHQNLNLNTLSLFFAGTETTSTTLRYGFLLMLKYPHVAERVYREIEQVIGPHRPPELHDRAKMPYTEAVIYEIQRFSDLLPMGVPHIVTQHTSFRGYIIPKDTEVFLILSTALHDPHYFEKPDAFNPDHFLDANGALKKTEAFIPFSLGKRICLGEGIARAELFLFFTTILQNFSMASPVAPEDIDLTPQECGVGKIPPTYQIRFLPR
Procedure: as §1, §2

CYP1A2 = target: T2, CYP1A2 (Homo sapiens, UniProt P05177); experiment: Cytochrome P450 reaction phenotyping, recombinant CYP1A2 (Bactosomes)
T2 sequence (P05177 1-516): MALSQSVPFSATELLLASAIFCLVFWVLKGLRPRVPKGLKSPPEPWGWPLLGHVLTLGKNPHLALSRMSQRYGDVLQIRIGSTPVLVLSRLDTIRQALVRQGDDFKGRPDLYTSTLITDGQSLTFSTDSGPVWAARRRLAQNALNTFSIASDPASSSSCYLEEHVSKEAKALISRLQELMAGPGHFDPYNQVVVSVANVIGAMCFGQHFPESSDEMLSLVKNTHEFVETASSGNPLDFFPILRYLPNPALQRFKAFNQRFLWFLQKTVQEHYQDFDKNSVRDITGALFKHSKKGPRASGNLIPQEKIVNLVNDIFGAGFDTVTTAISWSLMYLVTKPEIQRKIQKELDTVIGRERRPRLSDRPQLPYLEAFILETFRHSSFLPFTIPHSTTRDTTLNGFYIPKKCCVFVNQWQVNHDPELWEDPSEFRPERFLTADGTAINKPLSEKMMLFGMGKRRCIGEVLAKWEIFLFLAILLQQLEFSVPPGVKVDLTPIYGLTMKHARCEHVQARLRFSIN
Procedure: as §1, §2

CYP2D6 = CYP2D6 (Homo sapiens, UniProt P10635); experiment: Cytochrome P450 reaction phenotyping, recombinant CYP2D6 (Bactosomes); conditions: human, recombinant enzyme, pH 7.4
Chain of CYP2D6 (P10635 whole entry): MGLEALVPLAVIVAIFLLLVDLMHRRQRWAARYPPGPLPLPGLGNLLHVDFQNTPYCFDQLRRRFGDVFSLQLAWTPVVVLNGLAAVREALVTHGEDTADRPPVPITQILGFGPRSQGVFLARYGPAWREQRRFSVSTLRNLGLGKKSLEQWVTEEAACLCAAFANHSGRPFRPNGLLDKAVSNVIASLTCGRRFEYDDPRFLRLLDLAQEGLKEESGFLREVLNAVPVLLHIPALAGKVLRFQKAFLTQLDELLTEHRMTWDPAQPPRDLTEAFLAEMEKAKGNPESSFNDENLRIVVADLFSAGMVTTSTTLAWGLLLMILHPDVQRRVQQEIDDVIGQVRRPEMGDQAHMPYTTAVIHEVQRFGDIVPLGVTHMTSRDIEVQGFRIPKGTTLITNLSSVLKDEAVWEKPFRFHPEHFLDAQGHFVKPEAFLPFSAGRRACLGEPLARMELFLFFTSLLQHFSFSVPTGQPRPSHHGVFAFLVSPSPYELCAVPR
Procedure: as §1, §2

CYP2C8 = target: T3, CYP2C8 (Homo sapiens, UniProt P10632); experiment: Cytochrome P450 reaction phenotyping, recombinant CYP2C8 (Bactosomes); conditions: CYP2C8, substrate 1 μM
T3 sequence (P10632 1-490): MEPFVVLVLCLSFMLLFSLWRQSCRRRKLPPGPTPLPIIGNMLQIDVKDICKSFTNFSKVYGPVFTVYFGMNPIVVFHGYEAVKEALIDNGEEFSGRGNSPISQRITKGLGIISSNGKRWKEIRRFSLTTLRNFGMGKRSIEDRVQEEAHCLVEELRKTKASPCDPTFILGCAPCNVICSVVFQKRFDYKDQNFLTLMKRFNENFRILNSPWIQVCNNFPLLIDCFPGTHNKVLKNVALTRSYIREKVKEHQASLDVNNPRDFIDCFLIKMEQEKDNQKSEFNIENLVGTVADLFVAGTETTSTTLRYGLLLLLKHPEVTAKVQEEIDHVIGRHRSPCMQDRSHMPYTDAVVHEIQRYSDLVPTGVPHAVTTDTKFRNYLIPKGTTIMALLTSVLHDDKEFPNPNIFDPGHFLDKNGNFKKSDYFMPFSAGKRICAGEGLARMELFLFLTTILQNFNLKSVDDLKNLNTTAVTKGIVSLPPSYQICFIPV
Procedure: as §1, §2

CYP2C19 = CYP2C19 (Homo sapiens, UniProt P33261); experiment: Cytochrome P450 reaction phenotyping, recombinant CYP2C19 (Bactosomes); conditions: human, recombinant enzyme, pH 7.4
Chain of CYP2C19 (P33261 whole entry): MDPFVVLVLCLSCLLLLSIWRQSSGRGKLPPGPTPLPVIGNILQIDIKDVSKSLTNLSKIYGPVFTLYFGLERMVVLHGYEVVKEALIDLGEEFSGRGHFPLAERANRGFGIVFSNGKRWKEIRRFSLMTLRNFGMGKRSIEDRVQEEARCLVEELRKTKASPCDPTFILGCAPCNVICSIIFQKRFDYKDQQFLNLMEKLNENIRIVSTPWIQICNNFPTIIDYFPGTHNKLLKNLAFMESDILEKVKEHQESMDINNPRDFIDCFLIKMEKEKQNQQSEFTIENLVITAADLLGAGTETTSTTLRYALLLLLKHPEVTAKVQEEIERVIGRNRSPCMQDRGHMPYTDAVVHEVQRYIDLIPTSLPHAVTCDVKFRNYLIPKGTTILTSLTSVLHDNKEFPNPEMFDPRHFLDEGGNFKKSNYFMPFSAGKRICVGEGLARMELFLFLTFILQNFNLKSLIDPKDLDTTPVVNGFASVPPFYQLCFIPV
Procedure: as §1, §2

[3] = Ricobendazole microsomal metabolic stability without and with cimetidine or furafylline (Example 8); format: in vitro ADME; conditions: human, liver microsomes; for half-life at 0.1 μM: read-out: t½
Procedure: Incubation in the absence of NADPH was also performed to assess non-CYP mediated stability. Appropriate control compounds were also incubated.
A minus cofactor control incubation was included for each compound tested where 0.1 M phosphate buffer pH 7.4 was added instead of NADPH (minus NADPH). […] A control compound (phenacetin) was included (incubated without and with inhibitors as described above). All incubations were performed singularly for each test compound. Each incubation was carried out for 0, 5, 15, 30 and 45 min. The control (minus NADPH) was incubated for 45 min only.

Which hepatocyte CLint at 1 µM ([1]; CLint) does the source give for `O=c1ccc2ccc(O)cc2o1` [Umbelliferone] here?
The hepatocyte CLint at 1 µM was 229 µL/min/1e6 cells.

What about the half-life at 1 μM ([1]; t½) of the same compound?
Its half-life at 1 μM is 6.05 min.

And the half-life at 1 μM [2]?
The half-life at 1 μM was 7.95 min.

What does the source list for `CCC[S+]([O-])c1ccc2[nH]c(NC(=O)OC)nc2c1` (stereo not drawn) [Ricobendazole, albendazole sulphoxide]?
half-life at 1 μM (CYP3A4): 8.15 ± 11.4 h; half-life at 1 μM (CYP2C9): 4.53 ± 2.67 h; metabolism by recombinant enzyme (CYP2B6): not metabolised; % remaining (CYP1A2; CYP1A2, substrate 1 μM, 45 min): 85%; half-life at 1 μM (CYP1A2; human, recombinant enzyme, pH 7.4): 4 ± 0.635 h; half-life at 1 μM (CYP2D6): 7.75 ± 4.55 h; metabolism by recombinant enzyme (CYP2C8): not metabolised; half-life at 1 μM (CYP2C19): 10.3 ± 10.8 h; microsomal CLint at 0.1 μM ([3]; pH 7.4, with cimetidine 30 μM, 0.1 μM, 1 mg/mL, cimetidine 30 μM, read-out: CLint): 3.15 ± 1.24 µL/min/mg; half-life at 0.1 μM ([3]; pH 7.4, with cimetidine 30 μM, 0.1 μM, 1 mg/mL, cimetidine 30 μM): 3.67 h; microsomal CLint at 0.1 μM ([3]; pH 7.4, with cimetidine 100 μM, 0.1 μM, 1 mg/mL, cimetidine 100 μM, read-out: CLint): 3.43 ± 1.56 µL/min/mg; half-life at 0.1 μM ([3]; pH 7.4, with cimetidine 100 μM, 0.1 μM, 1 mg/mL, cimetidine 100 μM): 3.37 h; microsomal CLint at 0.1 μM ([3]; pH 7.4, with cimetidine 300 μM, 0.1 μM, 1 mg/mL, cimetidine 300 μM, read-out: CLint): 3.54 ± 1.09 µL/min/mg; half-life at 0.1 μM ([3]; pH 7.4, with cimetidine 300 μM, 0.1 μM, 1 mg/mL, cimetidine 300 μM): 3.27 h; microsomal CLint at 0.1 μM ([3]; pH 7.4, with furafylline 3 μM, read-out: CLint): 1.27 ± 2.47 µL/min/mg; half-life at 0.1 μM ([3]; pH 7.4, with furafylline 3 μM): 9.08 h; microsomal CLint at 0.1 μM ([3]; pH 7.4, with furafylline 10 μM, read-out: CLint): 4.31 ± 2.48 µL/min/mg; half-life at 0.1 μM ([3]; pH 7.4, with furafylline 10 μM): 2.68 h; microsomal CLint at 0.1 μM ([3]; pH 7.4, with furafylline 30 μM, read-out: CLint): 2.92 ± 1.75 µL/min/mg; half-life at 0.1 μM ([3]; pH 7.4, with furafylline 30 μM): 3.95 h; microsomal CLint at 0.1 μM ([3]; pH 7.4, 0.1 μM, 1 mg/mL, no inhibitor, read-out: CLint): 2.83 ± 1.76 µL/min/mg; half-life at 0.1 μM ([3]; pH 7.4, 0.1 μM, 1 mg/mL, no inhibitor): 4.08 h; microsomal CLint at 0.1 μM ([3]; optimisation, 0.1 μM and 1 mg/mL protein, read-out: intrinsic clearance): 6.63 ± 1.84 µL/min/mg; microsomal CLint at 1 μM ([3]; optimisation, 1 μM and 0.5 mg/mL protein, read-out: intrinsic clearance): 4.39 ± 2.77 µL/min/mg
